Laboratory results as given in patent US20220267280A1, “SMALL MOLECULE STIMULATORS OF THE CORE PARTICLE OF THE PROTEASOME” (Purdue Research Foundation, priority 2019, published 2022).
“Also recorded” adds a separate entry of the source.

Key:
20S CP [1] = test: standard FRET assay with the standard 20S CP; assay type: biochemical; settings: for % activity increase (increase in 20S proteasome activity): derivative at 25 μM, in triplicate
Procedure: (§1) Miconazole was discovered as a stimulator of the 20S CP during a screen of the NIH Clinical Collection (NCC), using our previously described FRET assay.^15,21 However, this screen utilized a modulated FRET peptide that substituted an aspartic acid for the phenylalanine. Hydrolysis of the FRET peptide produces a fluorescent signal that can be monitored over time to determine the activity level of the 20S CP. Screening the NCC was performed in 384-well plates on a Tecan plate reader, monitoring the emission wavelength of the FRET peptide over a 1 hr period. Each compound was screened at a final concentration of 25 μM in singlet. A linear regression was performed for the change in fluorescence over time, producing a slope. This value for each compound was then compared to that of a DMSO control (20S CP basal level activity), which was included in triplicate for each plate. Primary hit compounds were determined to be those with a slope 50% greater than that of the DMSO control.
All primary hits were then validated in triplicate, using this reporter and the standard FRET reporter. Following triplicate validation, the hits were purchased from other sources and tested once again for the effect of each on the 20S CP, using the standard FRET assay (FIG. 2A).
Following a mechanistic analysis of miconazole, a dose-response study was performed using the FRET assay and the standard 20S CP.
Each derivative of miconazole is tested at 25 μM in triplicate, using our standard FRET assay. Included in each plate is 25 μM miconazole in triplicate as a positive control. This is also performed to determine how well a derivative compares to the original compound. Derivatives that enhance 20S CP activity are then used for further study.

20S CP [2] = test: GFP-α-synuclein fusion cell assay, Western blot for GFP; assay type: cell-based; settings: for alpha-synuclein degradation (quantitation of gel bands): 25 μM for 16 hrs, duplicate
Excerpt: In this study, HEK-293T cells are transiently transfected to express a GFP-α-synuclein construct. α-Synuclein is a known substrate of the 20S CP, whereas GFP is too large and well-folded to enter the gate of the 20S CP for degradation. Therefore, 20S CP-mediated hydrolysis of this construct degrades the α-synuclein portion, leaving behind free GFP. […] After this time period, the cells were lysed and analyzed by Western blot for GFP. Because 20S CP-mediated hydrolysis of this fusion protein can only degrade the α-synuclein portion, the Western blot produces two clear bands, corresponding to the full fusion protein (GFP-α-synuclein) and free GFP. Quantitative analysis is performed for each sample, quantifying the relative densities of each band. The ratio of free GFP to the GFP-α-synuclein fusion was calculated. This calculated ratio of the miconazole-treated cell lysates was compared to the control (DMSO) to determine a change in 20S CP-mediated degradation.
We perform similar studies to those described above for each derivative that warrants further evaluation, including: a mechanistic analysis (FRET assay using the immunoproteasome and 26S proteasome), dose-response study to determine the EC50 of each compound, and the GFP-α-synuclein cell assay to examine the effectiveness of the miconazole derivative in cells. For the cell assay, miconazole is included as a positive control.

26S proteasome = test: FRET assay using the 26S proteasome; assay type: biochemical; settings: 25 μM
Procedure: (§2) In order to determine the general mechanism of action of miconazole (i.e. allosteric modulator of a hydrolysis activity or “gate-opener”), a series of FRET assays were performed with 25 μM miconazole, using the immunoproteasome (iCP) and the 26S proteasome. The immunoproteasome contains a high degree of similarity to the standard 20S CP (sCP); however, the catalytic β-subunits have been exchanged, leading to a variation in the hydrolysis activities of this protease compared to the standard 20S CP.^22 The gates of both the immunoproteasome and the 20S CP are identical. The 26S proteasome is the standard 20S CP that has been capped by the 19S regulatory particle, which binds the a-ring of the 20S CP and creates an open-gate conformation.^23 Gate-openers of the 20S CP should still impact the activity of the immunoproteasome; however, because the gate is precluded in the 26S proteasome, this type of stimulator is believed to be ineffective with this isoform of the proteasome Similarly, a stimulator that is able to enhance at least one of the catalytic sites of the 20S CP specifically may be ineffective with the immunoproteasome, as this isoform contains different catalytic subunits than the standard 20S CP. This type of stimulator will still impact the activity of the 26S proteasome, as it contains the standard 20S CP.

20S CP [3] = test: screen of the NIH Clinical Collection, FRET assay with modulated FRET peptide; assay type: biochemical; settings: 25 μM, singlet, 1 hr
Procedure: as §1

immunoproteasome (iCP) = test: FRET assay using the immunoproteasome; assay type: biochemical; settings: 25 μM
Procedure: as §2

SMILES | % activity increase (increase in 20S proteasome activity) (20S CP [1]) [%] | also measured
Clc1ccc(C(Cn2ccnc2)OCc2c(Cl)cccc2Cl)c(Cl)c1 (stereo not shown) [MD6] | 171 | 
Clc1ccc(COC(Cn2ccnc2)c2ccc(Cl)cc2Cl)cc1 (stereo not shown) [MD7] | 0 | 
C#CC[n+]1ccn(CC(OCc2ccc(Cl)cc2Cl)c2ccc(Cl)cc2Cl)c1.[Br-] (stereo not shown) [MD8] | 0 | 
CC(C)(C)c1ccc(COC(Cn2ccnc2)c2ccc(Cl)cc2Cl)cc1 (stereo not shown) [MDX1] | 248 | alpha-synuclein degradation (quantitation of gel bands) (20S CP [2]): increase in alpha-synuclein degradation
FC(F)(F)c1ccc(COC(Cn2ccnc2)c2ccc(Cl)cc2Cl)cc1 (stereo not shown) [MDX2] | 232 | alpha-synuclein degradation (quantitation of gel bands) (20S CP [2]): increase in alpha-synuclein degradation
CC(C)(C)c1ccc(C[n+]2ccn(CC(OCc3ccc(Cl)cc3Cl)c3ccc(Cl)cc3Cl)c2)cc1.[Br-] (stereo not shown) [MDX3] | 0 | 
Clc1ccc(COC(Cn2ccnc2)c2ccc(Cl)cc2Cl)c(Cl)c1 (stereo not shown) [miconazole, reference compound] |  | effect on standard 20S CP (sCP) activity (20S CP [1]; 25 μM): effective stimulator; also recorded: stimulatory effect; EC50 (20S CP [1]; read-out: EC50 (effective concentration that induces 50% of its maximum stimulatory effect), dose-response, standard 20S CP (sCP)): 20 µM; enhancement of degradation of α-synuclein over the DMSO control (ratio of free GFP to GFP-α-synuclein) (20S CP [2]; HEK-293T cells, 25 μM, 24 hr): 200-300%; effect on 26S proteasome activity (26S proteasome): no effect; increase of 20S CP activity (slope vs DMSO control) (20S CP [3]): 299%; effect on immunoproteasome (iCP) activity (immunoproteasome (iCP)): effective stimulator; also recorded: stimulatory effect

More lines, main results first:

% activity increase (increase in 20S proteasome activity) (20S CP [1]) [%] | SMILES | also measured
0 | Cc1ccc(COC(Cn2cccc2)c2ccc(Cl)cc2Cl)c(C)c1 (stereo not shown) [MD1] | 
0 | Fc1ccc(COC(Cn2cccc2)c2ccc(Cl)cc2Cl)c(F)c1 (stereo not shown) [MD2] | 
0 | Clc1ccc(C(Cn2cccc2)OCc2ccccc2)c(Cl)c1 (stereo not shown) [MD3] | 
0 | Clc1ccc(C(Cn2cccc2)OCc2ccc(Br)cc2Br)c(Cl)c1 (stereo not shown) [MD4] | 
122 | Clc1ccc(C(Cn2ccnc2)OCc2ccccc2Cl)c(Cl)c1 (stereo not shown) [MD5] | 
